Laboratory results published in US20160291027A1, “METHODS FOR […] ABILITY OF A Z[…] COMPOUND TO TREAT CANCER” (Eisai R&D Management Co., Ltd., priority 2007, published 2016).

Test system: cell lines which carried a BRAF V600E mutation
Assay: Cell growth assay (CellTiter-Glo or methylene blue) in solid cancer cell lines
Type: cell-based
Details: 96 hours, 0.3-10000 nM
Procedure: In a separate experiment, Compounds 091 and 106 were tested in solid cancer cell lines from different tissue types (shown in FIG. 3B for 21 cell lines for compound 091 and 19 cell lines for compound 106). All cell lines were introduced into 96-well plates and grown in the absence or continuous presence of 0.3-10000 nM of either compound 091 or compound 106 for 96 hours. Cell growth was assessed using a CellTiter-Glo® Luminescent Cell Viability Assay (Promega) or a methylene blue assay. IC50 values were determined as the concentration of a substance which inhibits cell growth by 50% compared to untreated cell populations.

Structure (SMILES): CNc1cc(O)c2c(c1)/C=C/C[C@H](O)[C@H](O)C(=O)/C=C\[C@@H](C)[C@H](C)OC2=O [Compound 091]
- Sensitivity of BRAF V600E cell lines (concentration range): low-nM or sub-μM concentration range
